According to patent publication US20120115852A1, “HETEROCYCLIC COMPOUNDS AS AUTOTAXIN INHIBITORS” (Merck Patent Gesellschaft Mit Beschrankter Haftung, priority 2009, published 2012):

Target: T1, recombinant autotaxin (Homo sapiens, UniProt Q13822)
T1 construct: made in house; host or cells: Hi5 insect cells (baculovirus)
Assay: Autotaxin test (enzyme test), Amplex Red fluorescence with LPC substrate
Assay type: biochemical
Conditions: autotaxin inhibition (enzyme test); for remaining activity at 10 µM: 10 μM compound, read-out: % Control at 10 μM
Protocol: Autotaxin Inhibition (Enzyme Test)
Autotaxin Test (Enzyme Test)
The autotaxin activity is measured indirectly using Amplex Red reagent. Amplex Red is measured here as fluorogenic indicator for the H2O2 formed. In detail, autotaxin converts the substrate lysophosphatidylcholine (LPC) into phosphocholine and lysophosphatidylic acid (LPA). After this reaction, the phosphocholine is reacted with alkaline phosphatase to give inorganic phosphate and choline. In the next step, choline is oxidised by choline oxidase to give betaine, with formation of H2O2. H2O2 reacts with Amplex Red reagent in the presence of peroxidase (horseradish peroxidase) in a 1:1 stoichiometry and forms the highly fluorescent resorufin. The fluorescence is measured in a reaction-dependent kinetic mode in order that fluorescent signals from possible other fluorescent substances which are not involved in the reaction can be corrected out.
3 μl of a standard solution or of the test substances (substances with the name A(n)) in individual concentrations dissolved in 20 mM Hepes pH 7.2 with a maximum of 11% of DMSO are pre-incubated together with 20 μl (19 ng) of highly purified recombinant autotaxin in test buffer in a black microtitre plate provided with 384 wells at 22° C. for 30 min. The reaction is then initiated by addition of 10 μl of L-α-lysophosphatidylcholine (LPC), where the final concentration of LPC is 75 μM. The mixture is incubated at 37° C. for 90 min. After the incubation, Amplex Red reagent, peroxidase (horseradish peroxidase) and choline oxidase is added, and the fluorescence is immediately measured at 612 nm with excitation of 485 nm in a “Tecan Ultra multimode” reader. The activity of autotaxin is calculated indirectly via detection of the H2O2 formed.
• Microtitre plate: PS microplate, 384 wells, small volume, black Corning, Cat#3677 • Protein: recombinant autotaxin (Baculovirale Hi5 Expression) • Substrate: L-α-lysophosphatidylcholine (chicken egg)); Avanti Polar Lipids #830071 P • Standard: C14 LPA, Avanti Polar Lipids, Cat#857120P • Detection reagent: Amplex Red reagent; Invitrogen #A12222; 5 mg dissolved in 1.923 ml of DMSO peroxidase type VI-A (horseradish) from Sigma #P6782; 5 mg dissolved in 7.45 ml of test buffer, choline oxidase; Sigma # C5896; 50 U dissolved in 2.47 ml of test buffer • Detection reagent mix: 1:50 dilution of detection reagent in test buffer • Test buffer: 10 mM Tris HCl, Merck, Cat #1.08219, pH 8, 1 mM; CaCl2×2 H2O, Merck #1.02382

| SMILES | remaining activity at 10 µM [%] | IC50 [nM] |
| --- | --- | --- |
| CC(C)(C)CC(=O)N1CCN2C(=O)c3cc(-c4ccc(Cl)cc4F)ccc3NC(=O)C2C1 (stereo not drawn) [Compound 10, 7-(4-chloro-2-fluorophenyl)-2-(3,3-dimethylbutyryl)-1,3,4,11a-tetrahydro-2H,10H-2,4a,10-triazadibenzo[a,d]cycloheptene-5,11-dione] | 1 | 100 to 1000 |
| CC(C)(C)CC(=O)N1CCN2Cc3cc(-c4ccccc4F)ccc3NCC2C1 (stereo not drawn) [Compound 25, 1-[7-(2-fluorophenyl)-3,4,5,10,11,11a-hexahydro-1H-2,4-a,10-triazadibenzo[a,d]cyclohepten-2-yl]-3,3-dimethylbutan-1-one] | 53 | > 1000 |
| CC(C)(C)CC(=O)N1CCN2Cc3cc(-c4ccccc4F)ccc3NC(=O)C2C1 (stereo not drawn) [Compound 26, 2-(3,3-dimethylbutyryl)-7-(2-fluorophenyl)-1,3,4,5,10,11a-hexahydro-2H-2,4-a,10-triazadibenzo[a,d]cyclohepten-11-one] | 73 | > 1000 |
| O=C1Nc2ccc(-c3ccc(Cl)cc3)cc2C(=O)N2CCN(C(=O)OCc3ccccc3)CC12 (stereo not drawn) [Compound 40, Benzyl 7-(4-chlorophenyl)-5,11-dioxo-3,4,5,10,11,11a-hexahydro-1H-2,4a,10-triazadibenzo[a,d]cycloheptene-2-carboxylate] | 22 | > 1000 |
| O=C1Nc2ccc(-c3ccc(Cl)cc3F)cc2C(=O)N2CCN(C(=O)n3ccnc3)C[C@H]12 [Compound 41, (R)-7-(4-Chloro-2-fluorophenyl)-2-(imidazole-1-carbonyl)-1,3,4,11a-tetrahydro-2H,10H-2,4a,10-triazadibenzo[a,d]cycloheptene-5,11-dione] | 48 | > 1000 |
| CC(C)(C)[C@H](NC1CCNCC1)C(=O)N1CCN[C@@H](C(=O)Nc2ccc(-c3ccc(Cl)cc3F)cc2C(=O)O)C1 [Compound 47, 4′-chloro-4-({(R)-4-[(S)-3,3-dimethyl-2-(piperidin-4-ylamino)-butyryl]piperazine-2-carbonyl}amino)-2′-fluorobiphenyl-3-carboxylic acid] | 8 | 100 to 1000 |
| CC(C)(C)[C@H](NC1CCNCC1)C(=O)N1CCN2C(=O)c3cc(-c4ccc(Cl)cc4F)ccc3NC(=O)[C@H]2C1 [Compound 48, (R)-7-(4-Chloro-2-fluorophenyl)-2-[(S)-3,3-dimethyl-2-(piperidin-4-ylamino)butyryl]-1,3,4,11a-tetrahydro-2H,10H-2,4a,10-triazadibenzo[a,d]cycloheptene-5,11-dione] | 2 | 100 to 1000 |
| CC(C)(C)[C@H](O)C(=O)N1CCN2Cc3cc(-c4ccc(Cl)cc4)ccc3NC(=O)C2C1 (stereo partly drawn) [Compound 57, 7-(4-Chlorophenyl)-2-((S)-2-hydroxy-3,3-dimethylbutyryl)-1,3,4,5,10,11a-hexahydro-1H-2,4a,10-triazadibenzo[a,d]cyclohepten-11-one] | 40 | > 1000 |

Next, values leading:

| remaining activity at 10 µM [%] | IC50 [nM] | SMILES |
| --- | --- | --- |
|  | > 1000 | O=C1Nc2ccc(-c3ccc(Cl)cc3)cc2C(=O)N2CCN(C(=O)[C@@H](O)c3ccccc3)C[C@H]12 [Compound A1, (R)-7-(4-Chlorophenyl)-2-((S)-2-hydroxy-2-phenylacetyl)-1,3,4,11a-tetrahydro-2H,10H-2,4a,10-triazadibenzo[a,d]cycloheptene-5,11-dione] |
| 86 |  | O=C1Nc2ccc(-c3cccs3)cc2C(=O)N2CCN(C(=O)[C@@H](O)c3ccccc3)C[C@H]12 [Compound A3, (R)-2-((S)-2-Hydroxy-2-phenylacetyl)-7-thiophen-2-yl-1,3,4,11a-tetrahydro-2H,10H-2,4a,10-triaza-dibenzo[a,d]cycloheptene-5,11-dione] |
| 75 |  | NC(=O)C(=O)N1CCN2C(=O)c3cc(-c4ccco4)ccc3NC(=O)[C@H]2C1 [Compound A4, 2-((R)-7-Furan-2-yl-5,11-dioxo-3,4,5,10,11,11a-hexahydro-1H-2,4a,10-triazadibenzo[a,d]cyclo-hepten-2-yl)-2-oxoacetamide] |
|  | > 1000 | O=C1Nc2ccc(-c3ccc(Cl)cc3)cc2C(=O)N2CCN(C(=O)[C@@H]3CSCN3)C[C@H]12 [Compound A5, (R)-7-(4-Chlorophenyl)-2-((R)-thiazolidine-4-carbonyl)-1,3,4,11a-tetrahydro-2H,10H-2,4a,10-triazadibenzo[a,d]cycloheptene-5,11-dione] |
| 73 |  | O=C1Nc2ccc(-c3ccco3)cc2C(=O)N2CCN(C(=O)CO)C[C@H]12 [Compound A6, (R)-7-Furan-2-yl-2-(2-hydroxyacetyl)-1,3,4,11a-tetrahydro-2H,10H-2,4a,10-triazadibenzo[a,d]-cycloheptene-5,11-dione] |
|  | > 1000 | CC(C)(C)CC(=O)N1CCN2C(=O)c3cc(-c4ccccc4F)ccc3NC(=O)[C@H]2C1 [Compound A7, (R)-2-(3,3-Dimethylbutyryl)-7-(2-fluorophenyl)-1,3,4,11a-tetrahydro-2H,10H-2,4a,10-triaza-dibenzo[a,d]cycloheptene-5,11-dione] |
| 67 |  | O=C1Nc2ccc(-c3cccs3)cc2C(=O)N2CCN(C(=O)CO)C[C@H]12 [Compound A8, (R)-2-(2-Hydroxyacetyl)-7-thiophen-2-yl-1,3,4,11a-tetrahydro-2H,10H-2,4a,10-triazadibenzo[a,d]-cycloheptene-5,11-dione] |
| 84 |  | CN(C)c1ccc(C(=O)N2CCN3C(=O)c4cc(-c5ccc(Cl)cc5)ccc4NC(=O)[C@H]3C2)cc1 [Compound A9, (R)-7-(4-Chlorophenyl)-2-(4-dimethylamino-benzoyl)-1,3,4,11a-tetrahydro-2H,10H-2,4a,10-triazadibenzo[a,d]cycloheptene-5,11-dione] |
| 34 | > 1000 | O=C1Nc2ccc(-c3ccccc3F)cc2C(=O)N2CCN(C(=O)[C@@H]3CSCN3)C[C@H]12 [Compound A10, (R)-7-(2-Fluorophenyl)-2-((R)-thiazolidine-4-carbonyl)-1,3,4,11a-tetrahydro-2H,10H-2,4a,10-triazadibenzo[a,d]cycloheptene-5,11-dione] |
| 69 |  | COc1ccc(-c2ccc3c(c2)C(=O)N2CCN(C(=O)c4cccc(F)c4)C[C@@H]2C(=O)N3)cc1 [Compound A11, (R)-2-(3-Fluorobenzoyl)-7-(4-methoxyphenyl)-1,3,4,11a-tetrahydro-2H,10H-2,4a,10-triaza-dibenzo[a,d]cycloheptene-5,11-dione] |
|  | > 1000 | O=C1Nc2ccc(-c3ccccc3F)cc2C(=O)N2CCN(C(=O)[C@@H]3CSCN3)CC12 (stereo partly drawn) [Compound A12, 7-(2-Fluorophenyl)-2-((R)-thiazolidine-4-carbonyl)-1,3,4,11a-tetrahydro-2H,10H-2,4a,10-triaza-dibenzo[a,d]cycloheptene-5,11-dione] |
|  | > 1000 | CC(C)(C)CC(=O)N1CCN2C(=O)c3cc(-c4ccccc4F)ccc3NC(=O)C2C1 (stereo not drawn) [Compound A13, 2-(3,3-Dimethylbutyryl)-7-(2-fluorophenyl)-1,3,4,11a-tetrahydro-2H,10H-2,4a,10-triaza-dibenzo[a,d]cycloheptene-5,11-dione] |
| 38 | > 1000 | O=C1Nc2ccc(-c3ccccc3F)cc2C(=O)N2CCN(C(=O)c3ccc4[nH]nnc4c3)CC12 (stereo not drawn) [Compound A14, 2-(1H-Benzotriazole-5-carbonyl)-7-(2-fluorophenyl)-1,3,4,11a-tetrahydro-2H,10H-2,4a,10-triaza-dibenzo[a,d]cycloheptene-5,11-dione] |
| 55 | > 1000 | O=C1Nc2ccc(-c3ccccc3F)cc2C(=O)N2CCN(C(=O)c3ccccn3)CC12 (stereo not drawn) [Compound A15, 7-(2-Fluorophenyl)-2-(pyridine-2-carbonyl)-1,3,4,11a-tetrahydro-2H,10H-2,4a,10-triaza-dibenzo[a,d]cycloheptene-5,11-dione] |
| 18 | > 1000 | O=C1Nc2ccc(-c3ccccc3F)cc2C(=O)N2CCN(C(=O)[C@@H]3CSCN3)C[C@@H]12 [Compound A16, (S)-7-(2-Fluorophenyl)-2-((R)-thiazolidine-4-carbonyl)-1,3,4,11a-tetrahydro-2H,10H-2,4a,10-triazadibenzo[a,d]cycloheptene-5,11-dione] |
|  | 100 to 1000 | CC(C)(C)CC(=O)N1CCN2C(=O)c3cc(-c4ccccc4F)ccc3NC(=O)[C@@H]2C1 [Compound A17, (S)-2-(3,3-Dimethylbutyryl)-7-(2-fluorophenyl)-1,3,4,11a-tetrahydro-2H,10H-2,4a,10-triaza-dibenzo[a,d]cycloheptene-5,11-dione] |
